How the values were obtained:
[1] = tested on: rabbit carotid artery; test: Effect on arteriosclerotic change induced by cuff in rabbit carotid artery (Test 1); assay type: in vivo; conditions: intramuscular, 5 days each week, 3 weeks, index scale 0-3
From the text: Effect on arteriosclerotic change induced by cuff in rabbit carotid artery
The arteriosclerosis which is characterized by intimal thickening was made in rabbits (about 2 kg weight) by the following method.
Under pentobarbital anesthesia, the left carotid artery was isolated from the surrounding tissue, put into a cuff (1.5 cm long PE-280) through a longitudinal slit and was returned to the place as it was. Then, the wound was sutured and the rabbits were recovered and fed with normal diet. Three weeks after surgery, the rabbits were anesthetized with pentobarbital and sections were taken of the carotid artery. The part of the artery covered by a cuff was examined under microscope for the arteriosclerotic index which was rated at 0, 1, 2 and 3 according to the degree of intimal thickening. For each rabbit, about 30 transverse sections were taken at random, and the mean arteriosclerotic index was used for the determination of the effect. Test Compound was suspended in 0.5% methyl cellulose and injected intramuscularly for 5 days each week beginning from one day after cuff treatment to one day before sacrifice. The injection volume was adjusted to 0.5 ml/kg.

[2] = tested on: thoracic aorta; test: Inhibition of vitamin-D3-induced rise in Ca content of the thoracic aorta (Test 4); conditions: for Ca content of the thoracic aorta (means± standard error): 10μg/kg 1-α hydroxyvitamin D3 orally once a day for 2 weeks; for ED50: Rattus norvegicus, po, 336 h, read-out: ED50, inhibition of vitamin-D3-induced rise in Ca content of the thoracic aorta
[3] = tested on: rat aortic smooth muscle cells (SMC); test: Inhibition of migration of smooth muscle cell (SMC), modified Boyden chamber (Test 3); assay type: cell-based, rat (male Wistar); conditions: 5% zymosan-activated air pouch exudates as attractant, 8 hours, 37° C.
Protocol: Inhibition of migration of smooth muscle cell (SMC)
Preparation of inflammatory exudates from zymosan-activated air pouch in rats:
Inflammatory exudates were obtained according to the method of Konno and Tsurufuji [Br. J. Pharmacol., 80 (1983) 269]. Seven-week-old male Wistar rats were injected subcutaneously with 12 ml of air on the back to make a pouch. Twenty-four hours later 6 ml of 1.6% (W/V) zymosan suspension in 0.5% (W/V) methyl cellulose solution in saline was injected into the pouch to induce inflammation. After 3 days the inflammatory exudates were collected with pipets and centrifuged for 15 minutes at 2,000 G. The supernatant was stored at -80° C. until used.
Culture of rat aortic smooth muscle cells (SMC):
Rat aortic SMC were isolated and cultured by the method of Ross [J. Cell Biol. 50 (1971) 172]. […]
Migration of SMC was examined in modified Boyden chambers using a filter membrane with pores of 8 μm diameter [Atherosclerosis, 43 (1982) 143]. […] SMC migration was quantitated microscopically by counting the number of cells that migrated into the filter to a depth of 30μm. Ten high-power fields (HPF, x 400) were examined for each filter and cell migration was expressed as cells per 10 HPF.

[4] = tested on: rabbit carotid artery; test: Induction of intimal thickening of rabbit carotid artery by polyethylene cuff treatment (Test 2); assay type: in vivo, male Japanese white rabbits; conditions: intramuscular once a day, 3 weeks, index scale 0-3
Protocol: Induction of intimal thickening of rabbit carotid artery by polyethylene cuff treatment Eight (8) male Japanese white rabbits weighing about 2 kg were used for each test group. The rabbits were anesthetized with 12.5 mg/kg petobarbital and the left carotid artery was isolated with care not to injure the surrounding tissues. A polyethylene cuff (1.5 cm long PE280, inner diameter 2.15 mm, outer diameter 3.25 mm, made by Becton Dickinson & Co.) was placed around the artery according to the technique reported by Rosnowski et al. (CR. Acad, Sci. Paris, 271 (1970) 1467). The rabbits were maintained for 3 weeks on normal diet and water. Test Compounds and vehicles were given intramuscularly once a day starting from the day of cuff-placement. At the end of the 3rd week, the rabbits were heparinized (500 U, i.v.), and the artery was removed, washed free of blood with saline, fixed by immersion in 10% formalin and divided into 8 cross segments about 2 mm long. The segments were embedded in paraffin and cut into transverse sections. These sections were stained with orcein. About 70 transverse sections were prepared from each artery and used for the quantitation of the Arteriosclerotic Index. Quantitation of Arteriosclerotic Index The arterial sections were observed by light microscopy and the Arteriosclerotic Index was scored as follows. 0: No thickening. 1: slight hyperplasia in the subendothelial space with intima-media ratio of about 1/10. 2: several layers of cells in the subendothelial space with intima-media ratio of about 1/5, or parts of the subendothelial space with more hyperplasia. 3: sever hyperplasia throughout the subendothelial space with intima-media ratio of more than 1/3.

COC(=O)C1=C(C#N)NC(C)=C(C(=O)OC(C)C)C1c1cccc([N+](=O)[O-])c1 (centres unmarked) [Dihydropyridine Compound A, Isopropyl ester of 6-cyano-5-methoxycarbonyl-2-methyl-4-(3-nitrophenyl)-1,4-dihydropyridine-3-carboxylic acid]
Arteriosclerotic Index ([1]; 1.0 mg/kg): 0.85 ± 0.16
Arteriosclerotic Index ([1]; 10 mg/kg): 0.61 ± 0.21
Ca content of the thoracic aorta (means± standard error) ([2]; 0.1 mg/kg per os twice a day): 94 ± 9 % of control
Ca content of the thoracic aorta (means± standard error) ([2]; 1 mg/kg per os twice a day): 57 ± 13 % of control
Ca content of the thoracic aorta (means± standard error) ([2]; 10 mg/kg per os twice a day): 27 ± 6 % of control
Ca content of the thoracic aorta (means± standard error) ([2]; 100 mg/kg per os twice a day): 8 ± 3 % of control
ED50 [2]: 2.2 mg/kg
IC50 [3]: 0.033 nM
Arteriosclerotic Index (mean±standard error) ([4]; 1 mg/kg): 0.85 ±0.15
Arteriosclerotic Index (mean±standard error) ([4]; 10 mg/kg): 0.61 ±0.19

COC(=O)C1=C(C)NC(C)=C(C(=O)OC)C1c1ccccc1[N+](=O)[O-] [Nifedipine, Dimethyl ester of 2,6-dimethyl-4-(2-nitrophenyl)-1,4-dihydropyridine-3,5-dicarboxylic acid, reference compound]
Ca content of the thoracic aorta (means± standard error) ([2]; 1 mg/kg per os twice a day): 93 ± 15 % of control
Ca content of the thoracic aorta (means± standard error) ([2]; 10 mg/kg per os twice a day): 58 ± 15 % of control
Ca content of the thoracic aorta (means± standard error) ([2]; 100 mg/kg per os twice a day): 30 ± 10 % of control
ED50 [2]: 23.2 mg/kg
IC50 [3]: 0.17 nM
Arteriosclerotic Index (mean±standard error) ([4]; 1 mg/kg): 0.94 ±0.21
Arteriosclerotic Index (mean±standard error) ([4]; 10 mg/kg): 1.19 ±0.26
